Among the data in patent publication US9988400B2 (Genentech, Inc., priority 2013, dated 2018) are Max % and EC50 values, retold here.

In the assay the target is T1, HEK cells stably transfected with tetracycline inducible hNR1 and hNR2A (Homo sapiens, UniProt Q05586+Q12879).
T1 construct: expressed in transfected cells; host or cells: HEK cells, stably transfected, tetracycline/doxycycline inducible
Description: Assay 1: Cell-Based Assay, cytosolic calcium response to positive allosteric modulators (with 30 μM glycine and 300 nM L-glutamate, EC30). The following applies: for Max %: responses scaled relative to 100 μM L-glutamate maximal response (100%) and 0 μM L-glutamate (0%); for EC50: cytosolic calcium response, with 30 μM glycine and 300 nM L-glutamate (EC30), — = no plateau was reached. The procedure:
Assay 1: Cell-Based Assay
HEK cells stably transfected with tetracycline inducible hNR1 and hNR2A were seeded into clear bottom 384 well poly-D-lysine coated plates (2.5×10^4 cells per well) in Minimum Essential Media (MEM; without L-) including 7.5 μg mL^−1 doxycycline and 500 μM (+)-ketamine. The cells were incubated at 37° C. in 5% CO2 for 24 h. For measurement of changes in cytosolic calcium, the seeding media was removed and the cells incubated at 37° C. for 60 min with 1× Becton Dickinson Calcium Assay Kit reagent in Hanks Balanced Salt Solution (HBSS; w/o magnesium, including 1.8 mM calcium, 0.65 mg ml^−1 probenecid and 10 μM (+)-ketamine, pH 7.15) then allowed to equilibrate to rt for 30 min. Concentration-effect curves to Positive Allosteric Modulators (PAMs) were constructed by adding different concentrations (with 30 μM glycine and 300 nM L-glutamate (EC30)) to different wells in HBSS. Compounds were added after a 10 second baseline read and maximum level of relative fluorescence units (RFU) was measured over a 5 min period. Responses were scaled relative to 100 μM L-glutamate maximal response (100%) and 0 μM L-glutamate (0%). EC50 values are provided for compounds reaching maximal response plateaus, and the max % (EC50 (- -)) only if no plateau was reached.
A four-parameter Hill equation was fitted to individual concentration-effect curves:
[formula] in which Y, S0, Sinf, AC50, n and c were effect, lower-asymptote, upper-asymptote, mid-point location, slope parameter, and concentration respectively.

Molecules are shown by their SMILES.

T1 sequence (Q12879 23-1464, other chains not shown): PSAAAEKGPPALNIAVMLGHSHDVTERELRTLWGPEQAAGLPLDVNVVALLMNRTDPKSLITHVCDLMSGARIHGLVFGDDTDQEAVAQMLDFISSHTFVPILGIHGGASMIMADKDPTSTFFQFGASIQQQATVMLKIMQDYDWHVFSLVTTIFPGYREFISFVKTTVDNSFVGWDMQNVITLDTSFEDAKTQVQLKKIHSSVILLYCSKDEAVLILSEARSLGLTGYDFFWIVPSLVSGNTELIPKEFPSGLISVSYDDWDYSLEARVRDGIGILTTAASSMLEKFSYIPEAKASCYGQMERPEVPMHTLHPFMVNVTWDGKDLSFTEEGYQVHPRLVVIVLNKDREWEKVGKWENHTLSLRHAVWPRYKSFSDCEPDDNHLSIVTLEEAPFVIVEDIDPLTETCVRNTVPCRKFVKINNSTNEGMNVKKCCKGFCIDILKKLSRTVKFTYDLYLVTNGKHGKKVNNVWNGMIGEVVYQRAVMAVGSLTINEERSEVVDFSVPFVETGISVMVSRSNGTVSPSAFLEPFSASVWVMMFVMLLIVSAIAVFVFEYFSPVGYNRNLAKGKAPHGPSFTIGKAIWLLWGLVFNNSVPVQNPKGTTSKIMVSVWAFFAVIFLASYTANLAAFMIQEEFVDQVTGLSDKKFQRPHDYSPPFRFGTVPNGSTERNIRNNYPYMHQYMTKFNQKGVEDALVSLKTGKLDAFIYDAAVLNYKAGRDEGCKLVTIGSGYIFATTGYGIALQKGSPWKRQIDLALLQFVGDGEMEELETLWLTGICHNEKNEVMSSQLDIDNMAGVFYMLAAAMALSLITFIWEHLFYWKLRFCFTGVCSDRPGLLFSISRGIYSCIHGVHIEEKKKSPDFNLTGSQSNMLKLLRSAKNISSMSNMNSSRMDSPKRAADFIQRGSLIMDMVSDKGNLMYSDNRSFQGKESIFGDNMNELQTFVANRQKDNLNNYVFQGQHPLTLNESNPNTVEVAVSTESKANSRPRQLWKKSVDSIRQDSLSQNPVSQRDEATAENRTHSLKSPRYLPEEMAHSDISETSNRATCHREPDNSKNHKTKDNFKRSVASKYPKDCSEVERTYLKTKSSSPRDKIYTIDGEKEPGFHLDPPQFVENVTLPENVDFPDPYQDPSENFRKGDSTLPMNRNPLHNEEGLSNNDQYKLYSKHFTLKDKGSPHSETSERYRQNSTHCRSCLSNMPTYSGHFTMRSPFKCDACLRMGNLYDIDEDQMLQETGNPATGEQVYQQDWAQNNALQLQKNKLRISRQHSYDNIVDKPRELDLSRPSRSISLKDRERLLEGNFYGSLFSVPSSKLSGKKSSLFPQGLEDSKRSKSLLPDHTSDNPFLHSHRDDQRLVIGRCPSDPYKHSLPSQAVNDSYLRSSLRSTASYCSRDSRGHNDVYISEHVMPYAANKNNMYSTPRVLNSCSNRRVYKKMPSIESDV

Consider `Cc1sc2nc(Cc3ccnc(C#N)c3)cc(=O)n2c1[C@@H]1C[C@H]1CO` (relative stereo) [Example 20.12, 4-((3-(trans-2-(hydroxymethyl)cyclopropyl)-2-methyl-5-oxo-5H-thiazolo[3,2-a]pyrimidin-7-yl)methyl)picolinonitrile], for which the Max % (Table 2) turned out to be 74%. Consider `Cc1sc2nc(Cc3cc(C#N)ccc3C3CC3)cc(=O)n2c1[C@@H]1C[C@H]1CO` (relative stereo) [Example 20.13, 4-cyclopropyl-3-((3-(trans-2-(hydroxymethyl)cyclopropyl)-2-methyl-5-oxo-5H-thiazolo[3,2-a]pyrimidin-7-yl)methyl)benzonitrile], for which, where the note is “Table 2”, the EC50 (commonly the concentration at which the effect is half-maximal) was determined as 5800 nM and the Max % was determined as 146%. Taken in the same sequence, the figures for `Cc1sc2nc(COc3ccc(F)cc3)cc(=O)n2c1C1CC1CO` (single isomer, unassigned) [Example 4.1, 7-(4-Fluorophenoxymethyl)-3-[trans-2-(hydroxymethyl)cyclopropyl]-2-methyl-5H-[1,3]thiazolo[3,2-a]pyrimidin-5-one] were 5100 nM and 141%. As for `Cc1sc2nc(COc3ccc(F)cc3)cc(=O)n2c1C1CC1CO` (single isomer, unassigned) [Example 4.2, 7-(4-Fluorophenoxymethyl)-3-[trans-2-(hydroxymethyl)cyclopropyl]-2-methyl-5H-[1,3]thiazolo[3,2-a]pyrimidin-5-one], under “Table 2”, the EC50 amounted to 1300 nM and the Max % is listed as 137%. On the same counts, the results for `Cc1sc2nc(COc3ccc(F)cc3)cc(=O)n2c1C1CC1CO` (single isomer, unassigned) [Example 4.3, 7-(4-Fluorophenoxymethyl)-3-[trans-2-(hydroxymethyl)cyclopropyl]-2-methyl-5H-[1,3]thiazolo[3,2-a]pyrimidin-5-one] are 20500 nM and 71.6%. Consider `Cc1sc2nc(COc3ccc(F)cc3)cc(=O)n2c1C1CC1C#N` (single isomer, unassigned) [Example 4.19, cis-2-[7-(4-Fluorophenoxymethyl)-2-methyl-5-oxo-5H-[1,3]thiazolo[3,2-a]pyrimidin-3-yl]cyclopropane-1-carbonitrile], for which, under “Table 2”, the EC50 turned out to be 9000 nM and the Max % came to 46.9%.

Turning to `Cc1sc2nc(COc3ccc(F)cc3)cc(=O)n2c1C1CC1C#N` (single isomer, unassigned) [Example 4.20, cis-2-[7-(4-Fluorophenoxymethyl)-2-methyl-5-oxo-5H-[1,3]thiazolo[3,2-a]pyrimidin-3-yl]cyclopropane-1-carbonitrile], where the note is “Table 2”, the EC50 came to 2400 nM and the Max % was determined as 93.9%. On the same counts, the results for `Cc1sc2nc(COc3ccc(F)cc3)cc(=O)n2c1[C@@H]1C[C@H]1C#N` (single isomer, unassigned) [Example 4.21, trans-2-[7-(4-Fluorophenoxymethyl)-2-methyl-5-oxo-5H-[1,3]thiazolo[3,2-a]pyrimidin-3-yl]cyclopropane-1-carbonitrile] are 16300 nM and 47.4%. Turning to `Cc1sc2nc(COc3ccc(F)cc3)cc(=O)n2c1[C@@H]1C[C@H]1C#N` (single isomer, unassigned) [Example 4.22, trans-2-[7-(4-Fluorophenoxymethyl)-2-methyl-5-oxo-5H-[1,3]thiazolo[3,2-a]pyrimidin-3-yl]cyclopropane-1-carbonitrile], the Max % (Table 2) worked out at 84.2%. Turning to `CCN(Cc1cc(=O)n2c(C3CC3CO)c(C)sc2n1)c1ccc(F)cc1` (single isomer, unassigned) [Example 5.18, 7-((ethyl(4-fluorophenyl)amino)methyl)-3-(trans-2-(hydroxymethyl)cyclopropyl)-2-methyl-5H-thiazolo[3,2-a] pyrimidin-5-one], for the setting “Table 2”, the EC50 amounted to 91 nM and the Max % was determined as 164%. Taken in the same sequence, the figures for `CCN(Cc1cc(=O)n2c(C3CC3CO)c(C)sc2n1)c1ccc(F)cc1` (single isomer, unassigned) [Example 5.19, 7-((ethyl(4-fluorophenyl)amino)methyl)-3-(trans-2-(hydroxymethyl)cyclopropyl)-2-methyl-5H-thiazolo[3,2-a] pyrimidin-5-one] were 1700 nM and 141%. Taken in the same sequence, the figures for `Cc1sc2nc(CN(CCF)c3ccc(F)cc3)cc(=O)n2c1C1CC1CO` (single isomer, unassigned) [Example 5.42, 7-[[4-fluoro-N-(2-fluoroethyl)anilino]methyl]-3-trans-2-(hydroxymethyl)cyclopropyl]-2-methyl-thiazolo[3,2-a]pyrimidin-5-one] were 32.9 nM and 162%. On the same counts, the results for `Cc1sc2nc(CN(CCF)c3ccc(F)cc3)cc(=O)n2c1[C@@H]1C[C@H]1CO` (single isomer, unassigned) [Example 5.43, 7-[[4-fluoro-N-(2-fluoroethyl)anilino]methyl]-3-[trans-2-(hydroxymethyl)cyclopropyl]-2-methyl-thiazolo[3,2-a]pyrimidin-5-one] are 821 nM and 145%. Turning to `CCN(Cc1cc(=O)n2c3c(sc2n1)CCC3CO)c1ccc(F)cc1` (single isomer, unassigned) [Example 8.3, 6-[(N-ethyl-4-fluoro-anilino)methyl]-1-(hydroxymethyl)-2,3-dihydro-1H-cyclopenta[3,4]thiazolo[1,4-a]pyrimidin-8-one], where the note is “Table 2”, the EC50 is 1300 nM and the Max % is given as 150%.

For `CCN(Cc1cc(=O)n2c3c(sc2n1)CCC3CO)c1ccc(F)cc1` (single isomer, unassigned) [Example 8.4, 6-[(N-ethyl-4-fluoro-anilino)methyl]-1-(hydroxymethyl)-2,3-dihydro-1H-cyclopenta[3,4]thiazolo[1,4-a]pyrimidin-8-one], under “Table 2”, the EC50 worked out at 569 nM and the Max % was found to be 164%. Taken in the same sequence, the figures for `CCN(Cc1cc(=O)n2c(C(O)CCO)c(C)sc2n1)c1ccc(F)cc1` (single isomer, unassigned) [Example 12.3, 3-(1,3-dihydroxypropyl)-7-[(N-ethyl-4-fluoro-anilino)methyl]-2-methyl-thiazolo[3,2-a]pyrimidin-5-one] were 1600 nM and 183%. For the compound `CCN(Cc1cc(=O)n2c(C(O)CCO)c(C)sc2n1)c1ccc(F)cc1` (single isomer, unassigned) [Example 12.4, 3-(1,3-dihydroxypropyl)-7-[(N-ethyl-4-fluoro-anilino)methyl]-2-methyl-thiazolo[3,2-a]pyrimidin-5-one], where the note is “Table 2”, the EC50 turned out to be 591 nM and the Max % was 176%. In the case of `Cc1cc(C2CC2)n(Cc2cc(=O)n3c([C@@H]4C[C@H]4CO)c(C)sc3n2)n1` (single isomer, unassigned) [Example 15.13, 7-[(5-cyclopropyl-3-methyl-pyrazol-1-yl)methyl]-3-[2-(hydroxymethyl)cyclopropyl]-2-methyl-thiazolo[3,2-a]pyrimidin-5-one], the Max % (Table 2) is 67.6%.

For `Cc1cc(C2CC2)n(Cc2cc(=O)n3c([C@@H]4C[C@H]4CO)c(C)sc3n2)n1` (single isomer, unassigned) [Example 15.14, 7-[(5-cyclopropyl-3-methyl-pyrazol-1-yl)methyl]-3-[2-(hydroxymethyl)cyclopropyl]-2-methyl-thiazolo[3,2-a]pyrimidin-5-one], under “Table 2”, the EC50 was 3100 nM and the Max % stood at 159%.

As for `Cc1sc2nc(Cn3nc(C4CC4)cc3C)cc(=O)n2c1[C@@H]1C[C@H]1CO` (single isomer, unassigned) [Example 15.15, 7-[(3-cyclopropyl-5-methyl-pyrazol-1-yl)methyl]-3-[2-(hydroxymethyl)cyclopropyl]-2-methyl-thiazolo[3,2-a]pyrimidin-5-one], the Max % (Table 2) was 61.9%. Regarding `Cc1sc2nc(Cn3nc(C4CC4)cc3C)cc(=O)n2c1C1CC1CO` (single isomer, unassigned) [Example 15.16, 7-[(3-cyclopropyl-5-methyl-pyrazol-1-yl)methyl]-3-[2-(hydroxymethyl)cyclopropyl]-2-methyl-thiazolo[3,2-a]pyrimidin-5-one], where the note is “Table 2”, the EC50 came out at 17700 nM and the Max % is reported as 115%. As to `Cc1sc2nc(Cn3nc(C(F)(F)F)cc3Cl)cc(=O)n2c1C1CC1C#N` (single isomer, unassigned) [compound 125], where the note is “Table 3”, the EC50 worked out at 27.8 nM.

For the compound `Cc1sc2nc(Cn3nc(C(F)(F)F)cc3Cl)cc(=O)n2c1[C@@H]1C[C@@H]1C#N` (single isomer, unassigned) [compound 126], for the setting “Table 3”, the EC50 was 249 nM.

With `Cc1sc2nc(Cn3nc(C(F)(F)F)cc3Cl)cc(=O)n2c1C1CC1CO` (single isomer, unassigned) [compound 136], under “Table 3”, the EC50 was 39.1 nM. Same read-out and setting: as for `Cc1sc2nc(Cn3nc(C(F)(F)F)cc3Cl)cc(=O)n2c1C1CC1CO` (single isomer, unassigned) [compound 137], the figure is 420 nM; as for `Cc1sc2nc(Cn3nc(C(F)(F)F)cc3Cl)cc(=O)n2c1C1CC1C` (single isomer, unassigned) [compound 154], 504 nM.
